Test results taken from patent US20240343717A1, “MICROBIOCIDAL PYRAZOLE DERIVATIVES” (SYNGENTA CROP PROTECTION AG, priority 2021, published 2024).

Columns and labels:
Alternaria solani = Alternaria solani / tomato / leaf disc (early blight); type: in vivo; conditions: foliar, tomato leaf disks, sprayed 2 days before inoculation, compared to untreated control
Procedure: Example B1: Alternaria solani/Tomato/Leaf Disc (Early Blight) Tomato leaf disks cv. Baby are placed on agar in multiwell plates (24-well format) and sprayed with the formulated test compound diluted in water. The leaf disks are inoculated with a spore suspension of the fungus 2 days after application. The inoculated leaf disks are incubated at 23° C./21° C.

[1] = system: Mycosphaerella graminicola (Septoria tritici); assay: Mycosphaerella graminicola (Septoria tritici) / liquid culture (Septoria blotch); type: cell-based; conditions: Zymoseptoria tritici, growth inhibition photometrically 4-5 days after application, read-out: control of Mycosphaerella graminicola
Outline: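 Conidia suspended in potato dextrose broth and added to test compound supplied in DMSO in 96-well plates. Incubated at 24 °C, and growth inhibition read photometrically 4-5 days after application.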

[2] = system: Mycosphaerella arachidis (Cercospora arachidicola); assay: Mycosphaerella arachidis (Cercospora arachidicola) / liquid culture (early leaf spot); type: cell-based; conditions: growth inhibition photometrically 4-5 days after application, read-out: control of Mycosphaerella arachidis
Procedure: Example B10: Mycosphaerella arachidis (Cercospora arachidicola)/Liquid Culture (Early Leaf Spot) Conidia of the fungus from cryogenic storage are directly mixed into nutrient broth (PDB potato dextrose broth). After placing a (DMSO) solution of test compound into a microtiter plate (96-well format), the nutrient broth containing the fungal spores is added. The test plates are incubated at 24° C. and the inhibition of growth is determined photometrically 4-5 days after application.

[3] = system: Botryotinia fuckeliana (Botrytis cinerea); assay: Botryotinia fuckeliana (Botrytis cinerea) / liquid culture (gray mould); type: cell-based; conditions: growth inhibition photometrically 3-4 days after application, read-out: control of Botryotinia fuckeliana
Outline: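 Conidia suspended in Vogels broth and added to compound dispensed from DMSO. Incubated at 24°C, with growth inhibition measured photometrically 3–4 days later.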

Fusarium culmorum = assay: microbe, parasite or virus in culture; type: cell-based; conditions: read-out: control of Fusarium culmorum
[4] = system: Glomerella lagenarium (Colletotrichum lagenarium); assay: Glomerella lagenarium (Colletotrichum lagenarium) / liquid culture (anthracnose); type: cell-based; conditions: Colletotrichum orbiculare, growth inhibition photometrically 3-4 days after application, read-out: control of Glomerella lagenarium
Outline: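 Cryo-stored conidia in potato dextrose broth were added to test compound in DMSO. Plates were incubated at 24° C, and growth inhibition was read photometrically 3-4 days after application.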

[5] = system: Blumeria graminis f. sp. tritici (Erysiphe graminis f. sp. tritici); assay: Blumeria graminis f. sp. tritici / wheat / leaf disc preventative (powdery mildew on wheat); type: in vivo; conditions: foliar, wheat leaf segments, inoculated 1 day after application
Procedure: Example B4: Blumeria graminis f. Sp. Tritici (Erysiphe graminis f. Sp. Tritici)/Wheat/Leaf Disc Preventative (Powdery Mildew on Wheat) Wheat leaf segments cv. Kanzler are placed on agar in a multiwell plate (24-well format) and sprayed with the formulated test compound diluted in water. The leaf disks are inoculated by shaking powdery mildew infected plants above the test plates 1 day after application. The inoculated leaf disks are incubated at 20° C. and 60% rh under a light regime of 24 h darkness followed by 12 h light/12 h darkness in a climate chamber and the activity of a compound is assessed as percent disease control compared to untreated when an appropriate level of disease damage appears on untreated check leaf segments (6-8 days after application).

[6] = system: Monographella nivalis (Microdochium nivale); assay: Monographella nivalis (Microdochium nivale) / liquid culture (foot rot cereals); type: cell-based; conditions: growth inhibition photometrically 4-5 days after application, read-out: control of Monographella nivalis
Outline: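 Fungal conidia mixed directly into potato dextrose broth and added to test compound delivered in DMSO. Incubated at 24° C; growth inhibition read photometrically 4-5 days after application.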

Pyrenophora teres = Pyrenophora teres / barley / leaf disc preventative (net blotch); type: in vivo; conditions: foliar, barley leaf segments, inoculated 2 days after application
Procedure: Example B14: Pyrenophora teres/Barley/Leaf Disc Preventative (Net Blotch) Barley leaf segments cv. Hasso are placed on agar in a multiwell plate (24-well format) and sprayed with the formulated test compound diluted in water. The leaf segments are inoculated with a spore suspension of the fungus 2 days after application. The inoculated leaf segments are incubated at 20° C. and 65% rh under a light regime of 12 h light/12 h darkness in a climate cabinet and the activity of a compound is assessed as disease control compared to untreated when an appropriate level of disease damage appears in untreated check leaf segments (5-7 days after application).

[7] = system: Phaeosphaeria nodorum (Septoria nodorum); assay: Phaeosphaeria nodorum (Septoria nodorum) / wheat / leaf disc preventative (glume blotch); type: in vivo; conditions: Parastagonospora nodorum, foliar, wheat leaf segments, inoculated 2 days after application
Procedure: Example B8: Phaeosphaeria nodorum (Septoria nodorum)/Wheat/Leaf Disc Preventative (Glume Blotch) Wheat leaf segments cv. Kanzler are placed on agar in a multiwell plate (24-well format) and sprayed with the formulated test compound diluted in water. The leaf disks are inoculated with a spore suspension of the fungus 2 days after application. The inoculated test leaf disks are incubated at 20° C. and 75% rh under a light regime of 12 h light/12 h darkness in a climate cabinet and the activity of a compound is assessed as percent disease control compared to untreated when an appropriate level of disease damage appears in untreated check leaf disks (5-7 days after application).

Sclerotinia sclerotiorum = Sclerotinia sclerotiorum / liquid culture (cottony rot); type: cell-based; conditions: growth inhibition photometrically 3-4 days after application, read-out: control of Sclerotinia sclerotiorum
Procedure: Example B15: Sclerotinia sclerotiorum/Liquid Culture (Cottony Rot) Mycelia fragments of a newly grown liquid culture of the fungus are directly mixed into nutrient broth (PDB potato dextrose broth). After placing a (DMSO) solution of test compound into a microtiter plate (96-well format) the nutrient broth containing the fungal material is added. The test plates are incubated at 24° C. and the inhibition of growth is determined photometrically 3-4 days after application.

Structure (SMILES) | pest or weed control at 200 ppm (Alternaria solani) [%] | inhibition of growth at 20 ppm [1] [%] | inhibition of growth at 20 ppm [2] [%] | inhibition of growth at 20 ppm [3] [%] | inhibition of growth at 20 ppm (Fusarium culmorum) [%] | inhibition of growth at 20 ppm [4] [%] | pest or weed control at 200 ppm [5] [%] | inhibition of growth at 20 ppm [6] [%] | pest or weed control at 200 ppm (Pyrenophora teres) [%] | pest or weed control at 200 ppm [7] [%] | inhibition of growth at 20 ppm (Sclerotinia sclerotiorum) [%] | melting point [°C]
Cn1cc(C(C)(CNC(=O)c2noc(-c3ccc(F)cc3F)n2)c2cccc(Cl)n2)cn1 (stereo not drawn) [Compound P-83, N-[2-(6-chloro-2-pyridyl)-2-(1-methylpyrazol-4-yl)propyl]-5-(2,4-difluorophenyl)-1,2,4-oxadiazole-3-carboxamide] | ≥ 80 | ≥ 80 | ≥ 80 | ≥ 80 | ≥ 80 | ≥ 80 | ≥ 80 | ≥ 80 | ≥ 80 | ≥ 80 |  | 
Cn1cc(C(C)(CNC(=O)c2nc(-c3ccc(F)cc3F)no2)c2cccc(Cl)n2)cn1 (stereo not drawn) [Compound P-84, N-[2-(6-chloro-2-pyridyl)-2-(1-methylpyrazol-4-yl)propyl]-3-(2,4-difluorophenyl)-1,2,4-oxadiazole-5-carboxamide] | ≥ 80 | ≥ 80 | ≥ 80 | ≥ 80 | ≥ 80 | ≥ 80 | ≥ 80 | ≥ 80 | ≥ 80 | ≥ 80 | ≥ 80 | 
Cn1cc(C(C)(CNC(=O)c2cc(-c3ccc(F)cc3F)on2)c2ccnc(Cl)n2)cn1 (stereo not drawn) [Compound P-64, N-[2-(2-chloropyrimidin-4-yl)-2-(1-methylpyrazol-4-yl)propyl]-5-(2,4-difluorophenyl) isoxazole-3-carboxamide] | ≥ 80 | ≥ 80 |  | ≥ 80 |  | ≥ 80 | ≥ 80 | ≥ 80 | ≥ 80 | ≥ 80 |  | 
Cn1cc(C(C)(CNC(=O)c2nnc(-c3ccc(F)cc3F)o2)c2cccc(Cl)n2)cn1 (stereo not drawn) [Compound P-101, N-[2-(6-chloro-2-pyridyl)-2-(1-methylpyrazol-4-yl)propyl]-5-(2,4-difluorophenyl)-1,3,4-oxadiazole-2-carboxamide] | ≥ 80 | ≥ 80 | ≥ 80 | ≥ 80 |  | ≥ 80 | ≥ 80 | ≥ 80 | ≥ 80 | ≥ 80 | ≥ 80 | 
COc1cnc(Cl)nc1C(C)(CNC(=O)c1cc(-c2ccc(F)cc2F)on1)c1cnn(C)c1 (stereo not drawn) [Compound P-65, N-[2-(2-chloro-5-methoxy-pyrimidin-4-yl)-2-(1-methylpyrazol-4-yl)propyl]-5-(2,4-difluorophenyl) isoxazole-3-carboxamide] |  |  |  |  |  |  |  |  |  |  |  | 145 to 151
Cn1cc(C(C)(CNC(=O)c2cc(-c3ccc(F)cc3F)on2)c2ccccn2)cn1 (stereo not drawn) [Compound P-11, 5-(2,4-difluorophenyl)-N-[2-(1-methylpyrazol-4-yl)-2-(2-pyridyl)propyl] isoxazole-3-carboxamide] | ≥ 80 | ≥ 80 |  | ≥ 80 |  | ≥ 80 | ≥ 80 | ≥ 80 | ≥ 80 | ≥ 80 |  | 
Cn1ncc(C(C)(CNC(=O)c2nnc(-c3ccc(F)cc3F)s2)c2cccc(C#N)n2)c1Cl (stereo not drawn) [Compound P-118, N-[2-(5-chloro-1-methyl-pyrazol-4-yl)-2-(6-cyano-2-pyridyl)propyl]-5-(2,4-difluorophenyl)-1,3,4-thiadiazole-2-carboxamide] |  | ≥ 80 | ≥ 80 | ≥ 80 | ≥ 80 | ≥ 80 |  | ≥ 80 |  |  | ≥ 80 | 
Cn1cc(C(C)(CNC(=O)c2cc(-c3ccc(F)cc3F)on2)c2cccc(C3CC3)n2)cn1 (stereo not drawn) [Compound P-102, N-[2-(6-cyclopropyl-2-pyridyl)-2-(1-methylpyrazol-4-yl)propyl]-5-(2,4-difluorophenyl) isoxazole-3-carboxamide] |  | ≥ 80 | ≥ 80 | ≥ 80 | ≥ 80 | ≥ 80 |  | ≥ 80 | ≥ 80 | ≥ 80 | ≥ 80 | 
Cn1cc(C(C)(CNC(=O)c2nnc(-c3ccc(F)cc3F)s2)c2ccccn2)cn1 (stereo not drawn) [Compound P-6, 5-(2,4-difluorophenyl)-N-[2-(1-methylpyrazol-4-yl)-2-(2-pyridyl)propyl]-1,3,4-thiadiazole-2-carboxamide] | ≥ 80 | ≥ 80 |  | ≥ 80 |  | ≥ 80 | ≥ 80 | ≥ 80 | ≥ 80 | ≥ 80 |  | 
Cn1ncc(C(C)(CNC(=O)c2cc(-c3ccc(F)cc3F)on2)c2cccc(C#N)n2)c1Cl (stereo not drawn) [Compound P-119, N-[2-(5-chloro-1-methyl-pyrazol-4-yl)-2-(6-cyano-2-pyridyl)propyl]-5-(2,4-difluorophenyl) isoxazole-3-carboxamide] |  | ≥ 80 | ≥ 80 | ≥ 80 | ≥ 80 | ≥ 80 |  | ≥ 80 |  |  | ≥ 80 | 
Cn1ncc(C(C)(CNC(=O)c2nnc(-c3ccc(F)cc3F)s2)c2cccc(Cl)n2)c1Cl (stereo not drawn) [Compound P-25, N-[2-(5-chloro-1-methyl-pyrazol-4-yl)-2-(6-chloro-2-pyridyl)propyl]-5-(2,4-difluorophenyl)-1,3,4-thiadiazole-2-carboxamide] | ≥ 80 | ≥ 80 | ≥ 80 | ≥ 80 | ≥ 80 | ≥ 80 | ≥ 80 | ≥ 80 | ≥ 80 | ≥ 80 | ≥ 80 | 
